PubChem BioAssay AID1963966 (Molecular Pharmacology Branch, DTP, NCI, 2024)

System: 935938-334-R-J1-PDC spheroids with HUVEC/MSC, viability
Assay: Anticancer human tumor 935938-334-R-J1-PDC patient-derived small intestine adenocarcinoma cell line growth inhibition [PI3K]
Settings: for IC50: curve of first compound; for viability, T/C: stronger effect = lower value
From the text: Combinatorial screen of targeted agents with the PI3K inhibitors inavolisib, alpelisib, duvelisib, and copanlisib in multi-cell type tumor spheroids
A high-throughput screen of multi-cell type tumor spheroids was designed to identify active combinations of targeted small molecules and PI3K pathway inhibitors. Complex spheroids include a stromal component modeled by human endothelial cells (HUVEC) and fibroblasts modeled by human mesenchymal stem cells (MSCs). The concentration ranges selected for each drug and investigational agent were based upon clinically achievable concentrations if the clinical Cmax of the agent was known.
Compounds. The drugs and investigational agents: inavolisib (NSC800729), alpelisib (NSC765974), duvelisib (NSC772469), copanlisib (NSC816437), ipatasertib (NSC767898), afuresertib (NSC778305), talazoparib (NSC767125), sapanisertib (NSC764658), selumetinib (NSC741078), tovorafenib (DAY101, NSC766906), vemurafenib (NSC761431), ravoxertinib (NSC781343), sotorasib (NSC818433), MRTX1133 (NSC 836407), abemaciclib (NSC 768073), palbociclib (NSC758247), venetoclax (NSC 766270), SY5609 (NSC837396), enzalutamide (NSC755605), and darolutamide (NSC825331), were obtained from the National Cancer Institute (NCI) Developmental Therapeutics Program Chemical Repository. The FDA-approved anticancer drug set is available from the NCI Developmental Therapeutics Program. […] The stock solutions were prepared in dimethyl sulfoxide (DMSO, Sigma-Aldrich, St. Louis, MO, cat. D2650) at 800-fold the tested concentration and stored at -70 degrees C prior to their use. All drugs and investigational agents were tested over a range starting from a high concentration at or near the clinical Cmax and decreasing in half-log increments. If the clinical Cmax for an agent had not been determined, the highest concentration tested was 10 microM.
Cell Culture. All cells were maintained in an incubator at 37 degrees C and 5% CO2 with 95% humidity. The PDC lines were cultured according to standard operating procedures established by the NCI PDMR (https://pdmr.cancer.gov/sops/default.htm). All PDCs were thawed and cultured in Matrigel-coated flasks prepared with a working solution of 1X Ham's F-12 nutrient mix, without supplementation (Invitrogen, Waltham, MA, cat. 11765054), 100 U/mL penicillin-streptomycin (Invitrogen, cat. 15140122), and 2.5% Matrigel (Corning Inc., Corning, NY, cat. 354248) for the first three passages. The 354836-022-R-J1-PDC, 475296-252-R-J1-PDC, and 997726-040-R-J2-PDC lines were cultured in 6A media, which includes advanced DMEM/F-12 (Thermo Fisher Scientific, cat. 12634028), 10 mM HEPES (Thermo Fisher Scientific, cat. 15630080), 1X GlutaMAX supplement (Thermo Fisher Scientific, cat. 35050061), 0.1 mg/mL primocin (InvivoGen, San Diego, CA, cat. ant-pm-2), 10% defined fetal bovine serum, heat inactivated (HyClone Laboratories Inc., Logan, UT, cat. SH30070.03HI), 50% L-WRN conditioned media (ATCC, cat. CRL-3276), 1.25 mM N-Acetyl-L-cysteine (Sigma-Aldrich, cat. A9165), 10 mM nicotinamide (Sigma-Aldrich, cat. N0636), 1X B-27 supplement (Thermo Fisher Scientific, cat. 17504044), 1X N-2 supplement (Thermo Fisher Scientific, cat. 17502048), and 10 microM Y-27632 dihydrochloride (Tocris Bioscience, Bristol, United Kingdom, cat. 1254). The 624824-186-R-J2-PDC line was cultured in 6C/Colon 1B media, which includes all 6A media components plus 50 ng/mL human EGF recombinant protein (Thermo Fisher Scientific, cat. PHG0311). […]

[1] = second compound 0.00316 µM, first compound 0.000316 µM
[2] = second compound 0.00316 µM, first compound 0.001 µM
[3] = second compound 0.00316 µM, first compound 0.00316 µM
[4] = second compound 0.00316 µM, first compound 0.01 µM
[5] = second compound 0.00316 µM, first compound 0.0316 µM
[6] = second compound 0.00316 µM, first compound 0.1 µM
[7] = second compound 0.01 µM, first compound 0.000316 µM
[8] = second compound 0.01 µM, first compound 0.001 µM
[9] = second compound 0.01 µM, first compound 0.00316 µM
[10] = second compound 0.01 µM, first compound 0.01 µM
[11] = second compound 0.01 µM, first compound 0.0316 µM
[12] = second compound 0.01 µM, first compound 0.1 µM
[13] = second compound 0.0316 µM, first compound 0.000316 µM
[14] = second compound 0.0316 µM, first compound 0.001 µM
[15] = second compound 0.0316 µM, first compound 0.00316 µM
[16] = second compound 0.0316 µM, first compound 0.01 µM
[17] = second compound 0.0316 µM, first compound 0.0316 µM
[18] = second compound 0.0316 µM, first compound 0.1 µM
[19] = second compound 0.1 µM, first compound 0.000316 µM
[20] = second compound 0.1 µM, first compound 0.001 µM
[21] = second compound 0.1 µM, first compound 0.00316 µM
[22] = second compound 0.1 µM, first compound 0.01 µM
[23] = second compound 0.1 µM, first compound 0.0316 µM
[24] = second compound 0.1 µM, first compound 0.1 µM
[25] = second compound 0.316 µM, first compound 0.000316 µM
[26] = second compound 0.316 µM, first compound 0.001 µM
[27] = second compound 0.316 µM, first compound 0.00316 µM
[28] = second compound 0.316 µM, first compound 0.01 µM
[29] = second compound 0.316 µM, first compound 0.0316 µM
[30] = second compound 0.316 µM, first compound 0.1 µM
[31] = second compound 1 µM, first compound 0.000316 µM
[32] = second compound 1 µM, first compound 0.001 µM
[33] = second compound 1 µM, first compound 0.00316 µM
[34] = second compound 1 µM, first compound 0.01 µM
[35] = second compound 1 µM, first compound 0.0316 µM
[36] = second compound 1 µM, first compound 0.1 µM
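Note: compound exposure lasted seven days before viability was read.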
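Throughout, for viability, T/C: percent of vehicle DMSO treated spheroid viability so 100% = untreated.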

CC(=O)c1c(C)c2cnc(Nc3ccc(N4CCNCC4)cn3)nc2n(C2CCCC2)c1=O + CC(Nc1ccc2c(c1)OCCn1cc(N3C(=O)OCC3C(F)F)nc1-2)C(N)=O
IC50 (second compound 0.00316 µM): 62.3 nM | IC50 (second compound 0.01 µM): 61.7 nM | IC50 (second compound 0.0316 µM): 59 nM | IC50 (second compound 0.1 µM): 47.2 nM | IC50 (second compound 0.316 µM): 49.9 nM | IC50 (second compound 1 µM): 26.2 nM | viability, T/C [1]: 82.7% | viability, T/C [2]: 66% | viability, T/C [3]: 97.2% | viability, T/C [4]: 90.4% | viability, T/C [5]: 95.5% | viability, T/C [6]: 24.6% | viability, T/C [7]: 81.3% | viability, T/C [8]: 70.7% | viability, T/C [9]: 92.6% | viability, T/C [10]: 86.7% | viability, T/C [11]: 82.7% | viability, T/C [12]: 26.5% | viability, T/C [13]: 67.7% | viability, T/C [14]: 65.7% | viability, T/C [15]: 112% | viability, T/C [16]: 81.4% | viability, T/C [17]: 98.2% | viability, T/C [18]: 20.3% | viability, T/C [19]: 76.2% | viability, T/C [20]: 81.7% | viability, T/C [21]: 72.4% | viability, T/C [22]: 91.3% | viability, T/C [23]: 66.4% | viability, T/C [24]: 19.3% | viability, T/C [25]: 63.5% | viability, T/C [26]: 65.1% | viability, T/C [27]: 74.8% | viability, T/C [28]: 77.2% | viability, T/C [29]: 70.7% | viability, T/C [30]: 19.5% | viability, T/C [31]: 47.9% | viability, T/C [32]: 57.5% | viability, T/C [33]: 82.2% | viability, T/C [34]: 67.3% | viability, T/C [35]: 47.3% | viability, T/C [36]: 20.6%

CC(C)n1nc(-c2ccc3oc(N)nc3c2)c2c(N)ncnc21 + CC(Nc1ccc2c(c1)OCCn1cc(N3C(=O)OCC3C(F)F)nc1-2)C(N)=O
IC50 (second compound 0.00316 µM): 82.2 nM | IC50 (second compound 0.01 µM): > 100 nM | IC50 (second compound 0.0316 µM): 64.6 nM | IC50 (second compound 0.1 µM): 44.1 nM | IC50 (second compound 0.316 µM): 37.4 nM | IC50 (second compound 1 µM): 8.33 nM | viability, T/C [1]: 102% | viability, T/C [2]: 113% | viability, T/C [3]: 80.9% | viability, T/C [4]: 87.4% | viability, T/C [5]: 76.6% | viability, T/C [6]: 43.5% | viability, T/C [7]: 112% | viability, T/C [8]: 107% | viability, T/C [9]: 109% | viability, T/C [10]: 62.2% | viability, T/C [11]: 76.9% | viability, T/C [12]: 51.9% | viability, T/C [13]: 100% | viability, T/C [14]: 99.1% | viability, T/C [15]: 94.6% | viability, T/C [16]: 84.4% | viability, T/C [17]: 83.8% | viability, T/C [18]: 31.6% | viability, T/C [19]: 102% | viability, T/C [20]: 96.3% | viability, T/C [21]: 101% | viability, T/C [22]: 86.6% | viability, T/C [23]: 57.3% | viability, T/C [24]: 32.6% | viability, T/C [25]: 78.2% | viability, T/C [26]: 91% | viability, T/C [27]: 61.5% | viability, T/C [28]: 61% | viability, T/C [29]: 61.1% | viability, T/C [30]: 32.3% | viability, T/C [31]: 50.6% | viability, T/C [32]: 63.5% | viability, T/C [33]: 52% | viability, T/C [34]: 49.7% | viability, T/C [35]: 35.2% | viability, T/C [36]: 31.3%

CCCS(=O)(=O)Nc1ccc(F)c(C(=O)c2c[nH]c3ncc(-c4ccc(Cl)cc4)cc23)c1F + CC(Nc1ccc2c(c1)OCCn1cc(N3C(=O)OCC3C(F)F)nc1-2)C(N)=O
IC50 (second compound 0.00316 µM): 6910 nM | IC50 (second compound 0.01 µM): 7580 nM | IC50 (second compound 0.0316 µM): 7080 nM | IC50 (second compound 0.1 µM): 6880 nM | IC50 (second compound 0.316 µM): 5830 nM | IC50 (second compound 1 µM): 5370 nM | viability, T/C [5]: 100% | viability, T/C [6]: 101% | viability, T/C (second compound 0.00316 µM, first compound 0.316 µM): 162% | viability, T/C (second compound 0.00316 µM, first compound 1 µM): 103% | viability, T/C (second compound 0.00316 µM, first compound 3.16 µM): 92.6% | viability, T/C (second compound 0.00316 µM, first compound 10 µM): 30.3% | viability, T/C [11]: 136% | viability, T/C [12]: 89.5% | viability, T/C (second compound 0.01 µM, first compound 0.316 µM): 136% | viability, T/C (second compound 0.01 µM, first compound 1 µM): 103% | viability, T/C (second compound 0.01 µM, first compound 3.16 µM): 118% | viability, T/C (second compound 0.01 µM, first compound 10 µM): 28.9% | viability, T/C [17]: 92.3% | viability, T/C [18]: 101% | viability, T/C (second compound 0.0316 µM, first compound 0.316 µM): 98.3% | viability, T/C (second compound 0.0316 µM, first compound 1 µM): 110% | viability, T/C (second compound 0.0316 µM, first compound 3.16 µM): 100% | viability, T/C (second compound 0.0316 µM, first compound 10 µM): 28.6% | viability, T/C [23]: 93.6% | viability, T/C [24]: 78.1% | viability, T/C (second compound 0.1 µM, first compound 0.316 µM): 104% | viability, T/C (second compound 0.1 µM, first compound 1 µM): 118% | viability, T/C (second compound 0.1 µM, first compound 3.16 µM): 88.5% | viability, T/C (second compound 0.1 µM, first compound 10 µM): 31.3% | viability, T/C [29]: 84.2% | viability, T/C [30]: 92.4% | viability, T/C (second compound 0.316 µM, first compound 0.316 µM): 84.6% | viability, T/C (second compound 0.316 µM, first compound 1 µM): 102% | viability, T/C (second compound 0.316 µM, first compound 3.16 µM): 78.9% | viability, T/C (second compound 0.316 µM, first compound 10 µM): 24.6% | viability, T/C [35]: 72.5% | viability, T/C [36]: 66.9% | viability, T/C (second compound 1 µM, first compound 0.316 µM): 86.5% | viability, T/C (second compound 1 µM, first compound 1 µM): 62.9% | viability, T/C (second compound 1 µM, first compound 3.16 µM): 77% | viability, T/C (second compound 1 µM, first compound 10 µM): 22.9%
